Test results taken from article PMC8401404 (Molecules, 2021).
≈ marks a conversion by molar mass, not a printed value. Structures can show the parent of a compound that is named as a salt. Where two headings read alike, the source gives them in different places.

Assays:
A549 [1] = assay: MTS cytotoxicity assay, 2D cell culture; conditions: Homo sapiens, A549, 72 h, read-out: Cytotoxicity Assay IC50 ± SD; A549 2D
Procedure: (§1) MTS assay gives us information about the number of living cells, in this case, metabolically active cells, whereas the BrdU proliferation assay gives a measure of the cell population in active division phase. Both assays were performed in 2D and 3D assay formats. For the 2D cell assay format, we used classic two-dimensional in vitro assays and as a 3D assay we used a hanging drop proliferation cell assay as previously described. We explored the activity of compounds on three human lung cancer cell lines, A549, HCC827 and NCI-H358. The compound activity was also tested on human lung fibroblast cell line MRC-5. A two-dimensional in vitro viability assay was performed on the MRC-5 cell line to see if tested compounds are cytotoxic on normal cell lines in low concentrations. […] 7.1.
(§2) Test compounds were synthesized by a research group at the Department of Organic Chemistry, Faculty of Chemical Engineering and Technology, University of Zagreb. […] Compounds were diluted 1:3. We transferred 500 nL (for 2D cell culture) or 400 nL (for 3D cell culture) of the compound from a mother plate to test plate by using Mosquito (TTP labtech). DMSO percentage in test concentrations was 0.5–1.0%. Starting concentration of the test compounds and standard compound doxorubicin was 50 µM (2D cell culture) or 100 µM (3D cell culture).
(§3) Cells were grown in 96-well cell star polystyrene plates. We seeded 10,000 cells/well in wells 4 h prior to the treatment with different compounds concentrations and incubated for 72 h. A cell viability assay was performed according to the manufacturer’s instructions, using CellTiter 96 aqueous solution, MTS kit (Promega, Madison, WI, USA). After 0.5–2 h of cell incubation with MTS in 2D cell culture, the plates were read using PE EnVision absorbance at 490 nm.
(§4) Calculation of IC50 data, curves and QC analysis was performed by using Excel tools and GraphPadPrism software (La Jolla, CA, USA), v. […] QC criteria parameters (Z’, S:B, R2, HillSlope) were checked for every IC50 curve.

HCC827 [2] = assay: MTS cytotoxicity assay, 2D cell culture; conditions: Homo sapiens, HCC827, 72 h, read-out: Cytotoxicity Assay IC50 ± SD; HCC827 2D
Procedure: as §1, §2, §3, §4

NCI-H358 [3] = assay: MTS cytotoxicity assay, 2D cell culture; conditions: Homo sapiens, NCI-H358, 72 h, read-out: Cytotoxicity Assay IC50 ± SD; NCI-H358 2D
Procedure: as §1, §2, §3, §4

A549 [4] = assay: Cytotoxicity (viability) assay, 3D hanging drop cell culture; conditions: Homo sapiens, A549, 72 h, read-out: Cytotoxicity Assay IC50 ± SD; A549 3D
Procedure: as §1, §2
(§5) Cells were grown in 96-well Perfecta 3D hanging drop plates 5000 cell/well for 4 days until spheres were formed (and checked under the microscope). After sphere formation cells were treated with compounds followed by 72 h incubation. Cell viability assay was performed according to the manufacturer’s instructions, using CellTiter GLO 3D for 3D cell culture (Promega); cell incubation was 5 min on the shaker followed by 25 min incubation in the dark. Plates were read using PE EnVision luminescence.
as §4

HCC827 [5] = assay: as above; conditions: Homo sapiens, HCC827, 72 h, read-out: Cytotoxicity Assay IC50 ± SD; HCC827 3D
Procedure: as §1, §2, §5, §4

NCI-H358 [6] = assay: as above; conditions: Homo sapiens, NCI-H358, 72 h, read-out: Cytotoxicity Assay IC50 ± SD; NCI-H358 3D
Procedure: as §1, §2, §5, §4

[7] = MTS cytotoxicity assay, 2D cell culture, normal lung fibroblasts; conditions: human
Procedure: as §1, §2, §3, §4

A549 [8] = assay: BrdU proliferation assay, 2D cell culture; assay type: cell-based, human; conditions: Homo sapiens, A549, read-out: Proliferation Assay IC50 ± SD; A549 2D
Procedure: as §1, §2, §3
(§6) Proliferation assay was performed using Cell Proliferation ELISA, BrdU (Sigma, St. Louis, MO, USA). Briefly, 48 h hours after compound addition, 10 µM of BrdU was added to each well and incubated for the following 24 h. After incubation, a single cell suspension was made for 3D cell culture in the new 96-well plate. Plates were centrifuged and supernatants were removed from each plate (for 2D and 3D cell culture) followed by 60 min incubation at 60 °C. The rest of the proliferation assay was performed according to the manufacturer’s instructions.
as §4

HCC827 [9] = assay: BrdU proliferation assay, 2D cell culture; assay type: cell-based, human; conditions: Homo sapiens, HCC827, read-out: Proliferation Assay IC50 ± SD; HCC827 2D
Procedure: as §1, §2, §3, §6, §4

NCI-H358 [10] = assay: BrdU proliferation assay, 2D cell culture; assay type: cell-based, human; conditions: Homo sapiens, NCI-H358, 2D, n = 2, read-out: Proliferation Assay IC50 ± SD
Procedure: as §1, §2, §3, §6, §4

A549 [11] = assay: BrdU proliferation assay, 3D hanging drop cell culture; assay type: cell-based, human; conditions: Homo sapiens, A549, read-out: Proliferation Assay IC50 ± SD; A549 3D
Procedure: as §1, §2, §5, §6, §4

HCC827 [12] = assay: as above; assay type: cell-based, human; conditions: Homo sapiens, HCC827, read-out: Proliferation Assay IC50 ± SD; HCC827 3D
Procedure: as §1, §2, §5, §6, §4

NCI-H358 [13] = assay: as above; assay type: cell-based, human; conditions: Homo sapiens, NCI-H358, 3D, n = 2, read-out: Proliferation Assay IC50 ± SD
Procedure: as §1, §2, §5, §6, §4

E. coli ATCC 25922 = assay: Broth microdilution testing (CLSI); assay type: cell-based, Escherichia coli
Procedure: (§7) Broth microdilution testing was performed according to CLSI (Clinical Laboratory Standards Institute) guidelines. MIC (minimal inhibitory concentration) value was defined as the last tested concentration of compound at which there is no visible growth of bacteria. […] Clinical and Laboratory Standards Institute (CLSI) guidelines.

S. aureus ATCC 29213 = assay: Broth microdilution testing (CLSI); assay type: cell-based, Staphylococcus aureus
Procedure: as §7

S. cerevisiae ATCC 7752 = assay: Broth microdilution testing (CLSI); assay type: cell-based, Saccharomyces cerevisiae
Procedure: as §7

[14] = Escherichia coli, ATCC25922, broth microdilution, 16–24h at 37 °C, read-out: MIC E. coli ATCC 25922
[15] = Staphylococcus aureus, ATCC29213, broth microdilution, 16–24h at 37 °C, read-out: MIC S. aureus ATCC 29213
[16] = Saccharomyces cerevisiae, ATCC7752, broth microdilution, 16–24h at 37 °C, read-out: MIC S. cerevisiae ATCC 7752

Q: Which IC50 (A549 [1]) does the source give for `N#C/C(=C\c1ccc(-c2ccc(Cl)cc2)o1)c1nc2ccccc2s1` [Compound 22, (E)-2-(Benzothiazol-2-yl)-3-[5-(4-chlorophenyl)furan-2-yl]acrylonitrile] here?
A: The IC50 was > 50 µM.

Q: What about the IC50 (HCC827 [2]) of the same compound?
A: Its IC50 is > 50 µM.

Q: What about the IC50 (NCI-H358 [3]) of the same compound?
A: The IC50 was > 50 µM.

Q: What about the IC50 (A549 [4]) of the same compound?
A: Its IC50 is > 100 µM.

Q: And the IC50 (HCC827 [5])?
A: Its IC50 is > 100 µM.

Q: And the IC50 (NCI-H358 [6])?
A: Its IC50 is > 100 µM.

Q: And the IC50 at 72 h [7]?
A: Its IC50 at 72 h is > 50 µM.

Q: What about the IC50 (A549 [8]) of the same compound?
A: The IC50 was > 50 µM.

Q: What about the IC50 (HCC827 [9]) of the same compound?
A: Its IC50 is > 50 µM.

Q: What about the IC50 (NCI-H358 [10]) of the same compound?
A: The IC50 was > 50 µM.

Q: And the IC50 (A549 [11])?
A: Its IC50 is > 100 µM.

Q: And the IC50 (HCC827 [12])?
A: Its IC50 is > 100 µM.

Q: And the IC50 (NCI-H358 [13])?
A: The IC50 was > 100 µM.

Q: What about the MIC (E. coli ATCC 25922; Escherichia coli, ATCC25922, read-out: MIC E. coli ATCC 25922) of the same compound?
A: Its MIC is > 100 µM.

Q: And the MIC (S. aureus ATCC 29213; Staphylococcus aureus, ATCC29213, read-out: MIC S. aureus ATCC 29213)?
A: The MIC was > 100 µM.

Q: What about the MIC (S. cerevisiae ATCC 7752; Saccharomyces cerevisiae, ATCC7752, read-out: MIC S. cerevisiae ATCC 7752) of the same compound?
A: The MIC was > 100 µM.

Q: For Gentamycin [reference compound], which MIC (E. coli ATCC 25922; broth microdilution, 16–24h at 37 °C, read-out: MIC E. coli ATCC 25922) is on record?
A: The MIC was 0.5 µM.

Q: And the MIC (S. aureus ATCC 29213; broth microdilution, 16–24h at 37 °C, read-out: MIC S. aureus ATCC 29213)?
A: The MIC was 0.25 µM.

Q: And the MIC (S. cerevisiae ATCC 7752; broth microdilution, 16–24h at 37 °C, read-out: MIC S. cerevisiae ATCC 7752)?
A: Its MIC is >64 µM.

Q: For `O=[N+]([O-])c1ccc(-c2ccc(-c3nc4cc(C5=NCCN5)ccc4[nH]3)o2)cc1` (as salt: hydrochloride) [Compound 12, 5(6)-(4,5-Dihydro-1H-imidazol-2-yl)-2-[5-(4-nitrophenyl)furan-2-yl]benzimidazole hydrochloride], which melting point is on record?
A: Its melting point is > 270 °C.

Q: What does the source list for `C[C@@H](c1ncncc1F)[C@](O)(Cn1cncn1)c1ccc(F)cc1F` [Voriconazole, reference compound]?
A: MIC (E. coli ATCC 25922; [14]): > 64 µM; MIC (S. aureus ATCC 29213; [15]): > 64 µM; MIC (S. cerevisiae ATCC 7752; [16]): < 0.125 µM

Q: Which MIC (E. coli ATCC 25922; [14]) does the source give for `CC(C)(O/N=C(\C(=O)N[C@@H]1C(=O)N2C(C(=O)[O-])=C(C[n+]3ccccc3)CS[C@H]12)c1csc(N)n1)C(=O)O` [Ceftazidime, reference compound] here?
A: Its MIC is < 0.125 µM.

Q: What about the MIC (S. aureus ATCC 29213; [15]) of the same compound?
A: Its MIC is 16 µM (≈ 8.75 µg/mL).

Q: And the MIC (S. cerevisiae ATCC 7752; [16])?
A: Its MIC is > 64 µM.

Q: With `CC(C)NC(=N)c1ccc2[nH]c(-c3ccc(-c4ccc(Cl)cc4)o3)nc2c1` (as salt: hydrochloride) [Compound 14, 2-[5-(4-Chlorophenyl)furan-2-yl]-5(6)-isopropilamidinobenzimidazole hydrochloride] as the compound, how does the melting point read?
A: The melting point was 242 to 246 °C.

Q: Which results are given for `CC1(C)S[C@@H]2[C@H](NC(=O)[C@H](N)c3ccccc3)C(=O)N2[C@H]1C(=O)O` [Ampicillin, reference compound]?
A: MIC (E. coli ATCC 25922; [14]): 4 µM (≈ 1.4 µg/mL); MIC (S. aureus ATCC 29213; [15]): 2 µM (≈ 0.699 µg/mL); MIC (S. cerevisiae ATCC 7752; [16]): > 64 µM
